Patent publication US12168651B1, “9-(6-flouro-2-hydroxypyridin-3-yl)-10-(2-hydroxyethyl)-3,6-diphenyl-3,4,6,7,9,10-hexahydroacridine1,8(2H,5H)-dione as an antimicrobial compound” (KING FAISAL UNIVERSITY, priority 2023, dated 2024)

What was measured:
Assay type in all cases: cell-based
Conditions in all cases: after 10, 20, 40 and 60 minutes at all dilutions 1:100, 1:200, 1:400, 1:800
[1] = tested on: Candida albicans; assay: Antimicrobial screening by agar dilution, Candida albicans
Experimental: (§1) The antibacterial properties of the synthesized compound (9-(6-flouro-2-hydroxypyridin-3-yl)-10-(2-hydroxyethyl)-3,6-diphenyl-3,4,6,7,9,10-hexahydroacridine1,8(2H,5H)-dione) were studied by the method of agar dilution. Test solutions of each compound was prepared in concentration of 1% using dimethylformamide as a solvent then they are diluted in physiological solution to obtain the final experimental dilutions 1:100, 1:200, 1:400, 1:800. The effect of these substances are compared with furacillin in a controllable study. The testing microbes used were gram positive bacteria Staphylococcus aureus, gram negative bacteria Pseudomonas aeruginosa and Escherichia coli and Candida albicans fungus. The experiments used for this survey were meat-pentonlu agar (EPA) for cultivation of bacteria and Saburo environment for the fungus. Each experiment used 1 mL of test solution on each plate […]. Two drops of emulsified with microbes feel were added. All experimental samples were taken from the agar after 10, 20, 40, 60 minutes in the environment on the basis of Patrk planted. The bacteria were cultivated at a temperature of 37° C. for 1 day and the mushroom was kept in a thermostat for […] at a temperature of 28° C. Then results were checked.

[2] = tested on: Escherichia coli; assay: Antimicrobial screening by agar dilution, E. Coli
Experimental: as §1

[3] = tested on: Pseudomonas aeruginosa; assay: Antimicrobial screening by agar dilution, Ps. Aeroqonaza
Experimental: as §1

[4] = tested on: Staphylococcus aureus; assay: Antimicrobial screening by agar dilution, St. Aereus
Experimental: as §1

Measured: inhibition activity (in words)

O=C1CC(c2ccccc2)CC2=C1C(c1cc3cc(F)ccc3nc1O)C1=C(CC(c3ccccc3)CC1=O)N2CCO (stereo not shown)
the most higher inhibition activity: all assays above
